Read-outs that look alike come from different tables or passages of the source.
Columns and labels:
[1] = system: LNCaP prostate cancer cell; test: LNCaP cell viability (CellTiter-Glo); format: cell-based; conditions: Homo sapiens, 72 h, LNCaP cell viability, 3 days, CellTiter-Glo
Procedure: LNCaP cells seeded in 96-well plates were treated with 10 μM GNE-781 or selected bivalent compounds, i.e. P-001, P-002, and P-019, following a 12-point 3-fold serial dilution. Three days after treatment, cell viability was determined using the CellTiter-Glo kit (Promega) following manufacturer's instructions. Cell viability was normalized to the mean values of 3 replicates of untreated cells. Dose-dependent response was analyzed following the least-squares non-linear regression method using the GraphPad Prism 5.0 software.
LNCaP (clone FGC), 22RV1 and other cells were cultured at 37° C. with 5% CO 2 in RPMI 1640 Medium supplemented with 10% fetal bovine serum. Cells were authenticated using the short tandem repeat (STR) assays. Mycoplasma test results were negative.
Cells were seeded at a density of 5000 cells per well in 96-well assay plates and treated with test compounds following a 12-point 3-fold serial dilution. Three days later, cell viability was determined using the CellTiter-Glo assay kit according to the manufactureR's instructions. The dose-response curves were determined and IC50 values were calculated using the GraphPad Prism software following a nonlinear regression (least squares fit) method.

P300 = P300 (Homo sapiens, UniProt Q09472); test: percentage of inhibition (degradation) of p300 at 10 nM, Tables 2-4; format: cell-based; set-up: LNCaP or 22RV1 cells that express CBP/P300 proteins were treated with GNE-781 or the bivalent compounds; endogenous in cells; host or cells: LNCaP or 22RV1 (not given); conditions: for inhibition at 0.01 µM: read-out: Degradation (10 nM)
Procedure: Cultured cells or tissue chunks were washed with cold PBS once and lysed in cold RIPA buffer supplemented with protease inhibitors and phosphatase inhibitors (Beyotime Biotechnology). The solutions were then incubated at 4° C. for 30 minutes with gentle agitation to fully lyse cells. Cell lysates were centrifuged at 13,000 rpm for 10 minutes at 4° C. and pellets were discarded. Total protein concentrations in the lysates were determined by BCA assays (Beyotime Biotechnology). Cell lysates were mixed with Laemmli loading buffer to 1 X and heated at 99° C. for 5 min. Proteins were resolved on SDS-PAGE and visualized by chemiluminescence. Images were taken by a ChemiDoc MP Imaging system (Bio-Rad). Protein bands were quantitated using the accompanied software provided by Bio-Rad.

Sequence of P300 (Q09472 whole entry): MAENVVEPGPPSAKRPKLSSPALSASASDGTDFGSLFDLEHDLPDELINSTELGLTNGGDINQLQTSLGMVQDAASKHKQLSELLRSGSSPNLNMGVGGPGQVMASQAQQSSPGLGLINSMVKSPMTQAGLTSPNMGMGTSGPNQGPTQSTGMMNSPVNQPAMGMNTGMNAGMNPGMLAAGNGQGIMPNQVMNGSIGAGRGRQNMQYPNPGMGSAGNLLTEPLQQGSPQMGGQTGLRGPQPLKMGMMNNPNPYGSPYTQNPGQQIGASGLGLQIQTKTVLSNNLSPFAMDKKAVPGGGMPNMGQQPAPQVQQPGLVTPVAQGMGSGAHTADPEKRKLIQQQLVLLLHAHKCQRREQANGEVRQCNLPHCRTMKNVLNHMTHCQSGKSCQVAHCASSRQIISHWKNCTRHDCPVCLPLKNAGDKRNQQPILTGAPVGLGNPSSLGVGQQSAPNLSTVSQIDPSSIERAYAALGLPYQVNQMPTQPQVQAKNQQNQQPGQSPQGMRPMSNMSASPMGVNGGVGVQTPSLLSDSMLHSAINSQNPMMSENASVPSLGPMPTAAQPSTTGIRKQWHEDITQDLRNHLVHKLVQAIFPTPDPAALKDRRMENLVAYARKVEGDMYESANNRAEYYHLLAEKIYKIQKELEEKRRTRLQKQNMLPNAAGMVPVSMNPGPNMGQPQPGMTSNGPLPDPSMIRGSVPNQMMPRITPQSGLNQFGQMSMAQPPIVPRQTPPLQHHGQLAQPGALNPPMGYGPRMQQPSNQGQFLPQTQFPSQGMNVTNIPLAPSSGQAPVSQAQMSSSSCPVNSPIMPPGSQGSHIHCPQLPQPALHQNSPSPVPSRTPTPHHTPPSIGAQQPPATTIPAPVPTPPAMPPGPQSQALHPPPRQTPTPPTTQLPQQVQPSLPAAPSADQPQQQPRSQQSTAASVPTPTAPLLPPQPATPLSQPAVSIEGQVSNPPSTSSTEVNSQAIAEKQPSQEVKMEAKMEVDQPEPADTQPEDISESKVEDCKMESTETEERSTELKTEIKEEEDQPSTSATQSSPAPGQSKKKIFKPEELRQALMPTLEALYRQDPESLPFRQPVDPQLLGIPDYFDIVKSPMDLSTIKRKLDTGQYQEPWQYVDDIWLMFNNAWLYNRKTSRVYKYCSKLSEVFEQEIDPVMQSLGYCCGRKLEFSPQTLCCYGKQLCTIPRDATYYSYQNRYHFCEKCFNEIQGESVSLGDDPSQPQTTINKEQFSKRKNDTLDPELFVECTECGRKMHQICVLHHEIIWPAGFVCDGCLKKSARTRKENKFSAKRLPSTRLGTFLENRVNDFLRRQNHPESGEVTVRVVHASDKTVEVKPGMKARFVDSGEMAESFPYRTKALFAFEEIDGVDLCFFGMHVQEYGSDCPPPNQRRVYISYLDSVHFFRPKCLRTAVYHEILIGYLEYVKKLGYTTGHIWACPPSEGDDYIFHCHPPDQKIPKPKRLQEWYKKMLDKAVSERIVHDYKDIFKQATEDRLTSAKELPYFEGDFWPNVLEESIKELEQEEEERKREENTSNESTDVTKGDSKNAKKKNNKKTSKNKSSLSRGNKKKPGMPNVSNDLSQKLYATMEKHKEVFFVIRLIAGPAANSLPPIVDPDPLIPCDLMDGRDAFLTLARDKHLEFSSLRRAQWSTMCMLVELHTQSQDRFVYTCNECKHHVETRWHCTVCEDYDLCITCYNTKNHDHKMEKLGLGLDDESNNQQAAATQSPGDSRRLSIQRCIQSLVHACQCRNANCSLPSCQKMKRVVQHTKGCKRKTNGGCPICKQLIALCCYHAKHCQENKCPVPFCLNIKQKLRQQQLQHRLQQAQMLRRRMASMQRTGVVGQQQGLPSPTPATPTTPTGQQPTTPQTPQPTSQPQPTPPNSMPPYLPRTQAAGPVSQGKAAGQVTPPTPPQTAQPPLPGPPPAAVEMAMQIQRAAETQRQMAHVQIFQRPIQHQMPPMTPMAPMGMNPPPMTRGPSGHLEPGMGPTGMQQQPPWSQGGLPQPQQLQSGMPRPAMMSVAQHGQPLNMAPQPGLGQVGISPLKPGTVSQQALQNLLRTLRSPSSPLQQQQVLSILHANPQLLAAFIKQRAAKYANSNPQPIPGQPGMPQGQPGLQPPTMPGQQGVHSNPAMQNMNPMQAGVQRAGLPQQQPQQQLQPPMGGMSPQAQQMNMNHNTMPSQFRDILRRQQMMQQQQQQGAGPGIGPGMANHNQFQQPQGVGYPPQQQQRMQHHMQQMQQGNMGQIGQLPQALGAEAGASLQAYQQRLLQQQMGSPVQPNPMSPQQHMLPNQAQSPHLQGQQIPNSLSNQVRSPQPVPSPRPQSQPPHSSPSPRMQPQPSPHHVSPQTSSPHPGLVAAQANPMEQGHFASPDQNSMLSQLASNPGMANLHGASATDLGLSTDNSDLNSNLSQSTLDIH

Structure (SMILES)	IC50 ([1]; Table 3) [nM]	Degradation (10 nM) (P300; p300, 10 nM, Table 3)	IC50 ([1]; Table 4) [nM]	also measured
CNC(=O)N1CCc2c(c(N3CCCc4cc(-c5cnn(CC(=O)NCCOCCC(=O)N[C@H](C(=O)N6C[C@H](O)C[C@H]6C(=O)NCc6ccc(-c7scnc7C)cc6)C(C)(C)C)c5)c(C(F)F)cc43)nn2C2CCOCC2)C1 [P-074, 3-(7-(difluoromethyl)-6-(1-(2-((2-(3-(((S)-1-((2S,4R)-4-hydroxy-2-((4-(4-methylthiazol-5-yl)benzyl)carbamoyl)pyrrolidin-1-yl)-3,3-dimethyl-1-oxobutan-2-yl)amino)-3-oxopropoxy)ethyl)amino)-2-oxoethyl)-1H-pyrazol-4-yl)-3,4-dihydroquinolin-1(2H)-yl)-N-methyl-1-(tetrahydro-2H-pyran-4-yl)-1,4,6,7-tetrahydro-5H-pyrazolo[4,3-c]pyridine-5-carboxamide]	> 10000	–	–	inhibition at 0.01 µM (P300; p300, 10 nM, Table 3): < 20%
CNC(=O)N1CCc2c(c(N3CCCc4cc(-c5cnn(C)c5)c(C(F)F)cc43)nn2C2CCN(C(=O)CCCCCCn3c(=O)n(C4CCC(=O)NC4=O)c4ccccc43)CC2)C1 (centres unmarked) [P-106, 3-(7-(difluoromethyl)-6-(1-methyl-1H-pyrazol-4-yl)-3,4-dihydroquinolin-1(2H)-yl)-1-(1-(7-(3-(2,6-dioxopiperidin-3-yl)-2-oxo-2,3-dihydro-1H-benzo[d]imidazol-1-yl)heptanoyl)piperidin-4-yl)-N-methyl-1,4,6,7-tetrahydro-5H-pyrazolo[4,3-c]pyridine-5-carboxamide]	24.2	B (B: 50% ≤ Degradation < 80%)	–	–
CC(=O)N1CCc2c(c(N3CCCc4cc(-c5cnn(C)c5)c(C(F)F)cc43)nn2C2CCN(C(=O)CCCCCn3c(=O)n(C4CCC(=O)NC4=O)c4ccccc43)CC2)C1 (centres unmarked) [P-107, 3-(3-(6-(4-(5-acetyl-3-(7-(difluoromethyl)-6-(1-methyl-1H-pyrazol-4-yl)-3,4-dihydroquinolin-1(2H)-yl)-4,5,6,7-tetrahydro-1H-pyrazolo[4,3-c]pyridin-1-yl)piperidin-1-yl)-6-oxohexyl)-2-oxo-2,3-dihydro-1H-benzo[d]imidazol-1-yl)piperidine-2,6-dione]	20.4	B (B: 50% ≤ Degradation < 80%)	–	–
CC(=O)N1CCc2c(c(N3CCCc4cc(-c5cnn(C)c5)c(C(F)F)cc43)nn2C2CCN(C(=O)CCCCCCCn3c(=O)n(C4CCC(=O)NC4=O)c4ccccc43)CC2)C1 (centres unmarked) [P-135, 3-(3-(8-(4-(5-acetyl-3-(7-(difluoromethyl)-6-(1-methyl-1H-pyrazol-4-yl)-3,4-dihydroquinolin-1(2H)-yl)-4,5,6,7-tetrahydro-1H-pyrazolo[4,3-c]pyridin-1-yl)piperidin-1-yl)-8-oxooctyl)-2-oxo-2,3-dihydro-1H-benzo[d]imidazol-1-yl)piperidine-2,6-dione]	0.7	A (A: Degradation ≥ 80%)	–	–
CC(=O)N1CCc2c(c(N3CCCc4cc(-c5cnn(C)c5)c(C(F)F)cc43)nn2C2CCN(CCN3CCC(CNc4cccc5c4C(=O)N(C4CCC(=O)NC4=O)C5=O)CC3)CC2)C1 (centres unmarked) [P-143, 4-(((1-(2-(4-(5-acetyl-3-(7-(difluoromethyl)-6-(1-methyl-1H-pyrazol-4-yl)-3,4-dihydroquinolin-1(2H)-yl)-4,5,6,7-tetrahydro-1H-pyrazolo[4,3-c]pyridin-1-yl)piperidin-1-yl)ethyl)piperidin-4-yl)methyl)amino)-2-(2,6-dioxopiperidin-3-yl)isoindoline-1,3-dione]	1.5	A (A: Degradation ≥ 80%)	–	–
CC(=O)N1CCc2c(c(N3CCCc4cc(-c5cnn(C)c5)c(C(F)F)cc43)nn2C2CCN(C(=O)CCCCCCCCn3c(=O)n(C4CCC(=O)NC4=O)c4ccccc43)CC2)C1 (centres unmarked) [P-163, 3-(3-(9-(4-(5-acetyl-3-(7-(difluoromethyl)-6-(1-methyl-1H-pyrazol-4-yl)-3,4-dihydroquinolin-1(2H)-yl)-4,5,6,7-tetrahydro-1H-pyrazolo[4,3-c]pyridin-1-yl)piperidin-1-yl)-9-oxononyl)-2-oxo-2,3-dihydro-1H-benzo[d]imidazol-1-yl)piperidine-2,6-dione]	0.9	A (A: Degradation ≥ 80%)	–	–
CC(=O)N1CCc2c(c(N3CCCc4cc(-c5cnn(C)c5)c(C(F)F)cc43)nn2C2CCN(CCN3CCC(COc4cccc5c4C(=O)N(C4CCC(=O)NC4=O)C5=O)CC3)CC2)C1 (centres unmarked) [P-167, 4-((1-(2-(4-(5-acetyl-3-(7-(difluoromethyl)-6-(1-methyl-1H-pyrazol-4-yl)-3,4-dihydroquinolin-1(2H)-yl)-4,5,6,7-tetrahydro-1H-pyrazolo[4,3-c]pyridin-1-yl)piperidin-1-yl)ethyl)piperidin-4-yl)methoxy)-2-(2,6-dioxopiperidin-3-yl)isoindoline-1,3-dione]	92	D (D: Degradation < 20%)	–	–
CC(=O)N1CCc2c(c(N3CCCc4cc(-c5cnn(C)c5)c(C(F)F)cc43)nn2C2CCN(CCN3CCC(C4CN(c5cccc6c5C(=O)N(C5CCC(=O)NC5=O)C6=O)C4)CC3)CC2)C1 (centres unmarked) [P-187, 4-(3-(1-(2-(4-(5-acetyl-3-(7-(difluoromethyl)-6-(1-methyl-1H-pyrazol-4-yl)-3,4-dihydroquinolin-1(2H)-yl)-4,5,6,7-tetrahydro-1H-pyrazolo[4,3-c]pyridin-1-yl)piperidin-1-yl)ethyl)piperidin-4-yl)azetidin-1-yl)-2-(2,6-dioxopiperidin-3-yl)isoindoline-1,3-dione]	–	–	2.3	inhibition at 0.01 µM (P300): > 80%
CC(=O)N1CCc2c(c(N3CCCc4cc(-c5cnn(C)c5)c(C(F)F)cc43)nn2C2CCN(CCN3CCC(CCNc4cccc5c4C(=O)N(C4CCC(=O)NC4=O)C5=O)CC3)CC2)C1 (centres unmarked) [P-188, 4-((2-(1-(2-(4-(5-acetyl-3-(7-(difluoromethyl)-6-(1-methyl-1H-pyrazol-4-yl)-3,4-dihydroquinolin-1(2H)-yl)-4,5,6,7-tetrahydro-1H-pyrazolo[4,3-c]pyridin-1-yl)piperidin-1-yl)ethyl)piperidin-4-yl)ethyl)amino)-2-(2,6-dioxopiperidin-3-yl)isoindoline-1,3-dione]	–	–	2.3	inhibition at 0.01 µM (P300): > 80%
CC(=O)N1CCc2c(c(N3CCCc4cc(-c5cnn(C)c5)c(C(F)F)cc43)nn2C2CCN(CCN3CCOC(COc4cccc5c4C(=O)N(C4CCC(=O)NC4=O)C5=O)C3)CC2)C1 (centres unmarked) [P-189, 4-((4-(2-(4-(5-acetyl-3-(7-(difluoromethyl)-6-(1-methyl-1H-pyrazol-4-yl)-3,4-dihydroquinolin-1(2H)-yl)-4,5,6,7-tetrahydro-1H-pyrazolo[4,3-c]pyridin-1-yl)piperidin-1-yl)ethyl)morpholin-2-yl)methoxy)-2-(2,6-dioxopiperidin-3-yl)isoindoline-1,3-dione]	–	–	38	inhibition at 0.01 µM (P300): > 80%
CC(=O)N1CCc2c(c(N3CCCc4cc(-c5cnn(C)c5)c(C(F)F)cc43)nn2C2CCN(CCCN3CCC(CCc4cccc5c4C(=O)N(C4CCC(=O)NC4=O)C5=O)CC3)CC2)C1 (centres unmarked) [P-190, 4-(2-(1-(3-(4-(5-acetyl-3-(7-(difluoromethyl)-6-(1-methyl-1H-pyrazol-4-yl)-3,4-dihydroquinolin-1(2H)-yl)-4,5,6,7-tetrahydro-1H-pyrazolo[4,3-c]pyridin-1-yl)piperidin-1-yl)propyl)piperidin-4-yl)ethyl)-2-(2,6-dioxopiperidin-3-yl)isoindoline-1,3-dione]	–	–	41.4	inhibition at 0.01 µM (P300; p300, 10 nM, Table 4): 50 to 80%
CC(=O)N1CCc2c(c(N3CCCc4cc(-c5cnn(C)c5)c(C(F)F)cc43)nn2C2CCN(CCN3CCN(c4cccc5c4C(=O)N(C4CCC(=O)NC4=O)C5=O)CC3)CC2)C1 (centres unmarked) [P-191, 4-(4-(2-(4-(5-acetyl-3-(7-(difluoromethyl)-6-(1-methyl-1H-pyrazol-4-yl)-3,4-dihydroquinolin-1(2H)-yl)-4,5,6,7-tetrahydro-1H-pyrazolo[4,3-c]pyridin-1-yl)piperidin-1-yl)ethyl)piperazin-1-yl)-2-(2,6-dioxopiperidin-3-yl)isoindoline-1,3-dione]	–	–	179	inhibition at 0.01 µM (P300; p300, 10 nM, Table 4): < 20%
CC(=O)N1CCc2c(c(N3CCCc4cc(-c5cnn(C)c5)c(C(F)F)cc43)nn2C2CCN(CCC3CCN(c4cccc5c4C(=O)N(C4CCC(=O)NC4=O)C5=O)CC3)CC2)C1 (centres unmarked) [P-192, 4-(4-(2-(4-(5-acetyl-3-(7-(difluoromethyl)-6-(1-methyl-1H-pyrazol-4-yl)-3,4-dihydroquinolin-1(2H)-yl)-4,5,6,7-tetrahydro-1H-pyrazolo[4,3-c]pyridin-1-yl)piperidin-1-yl)ethyl)piperidin-1-yl)-2-(2,6-dioxopiperidin-3-yl)isoindoline-1,3-dione]	–	–	10.2	inhibition at 0.01 µM (P300; p300, 10 nM, Table 4): 50 to 80%

— US20240100170A1, “CYCLIC-AMP RESPONSE ELEMENT BINDING PROTEIN (CBP) AND/OR ADENOVIRAL E1A BINDING PROTEIN OF 300 KDA (P300) DEGRADATION COMPOUNDS AND METHODS OF USE” (CULLGEN (SHANGHAI), INC., priority 2020, published 2024)
